The values that follow come from patent publication US20230172897A1, “METHODS OF TREATING BREAST CANCERS WITH SELECTIVE ANDROGEN RECEPTOR MODULATORS AND ADDITIONAL THERAPEUTIC AGENTS” (VERU, INC., priority 2021, published 2023).

In assay [1] the test system is HCC-38 triple negative breast cancer cells. The assay is described as follows: SRB cell viability, HCC-38 cells infected with adenovirus containing LacZ or AR. Type of assay: cell-based. To be noted: 3 days. Here is the method: The SRB assay was used to determine cell number during cytotoxocity experiments. The following protocol was used: • 1. Cells were detached with 0.25% trypsin. • 2. Experimental cultures were cultured in 96-well microtiter plates (200 uL growth medium per well; 1,000-200,000 cells per well). • 3. Cultures were fixed with 50 uL 50% TCA (4° C.). (see cell fixation protocol for details). • 4. Fixed cells were stained with 50 uL 0.4% (wt/vol) SRB in 1% acetic acid for 10 minutes. • 5. SRB was removed and the cultures were quickly* rinsed 5 times with 1% acetic acid to remove unbound dye.** • 6. Cultures were air-dried overnight until there was no visible moisture. • 7. The cellular protein-bound SRB was dissolved with 200 uL unbuffered Tris base (10 mM, pH 10.5) for 30 minutes on a rocking platform shaker. • 8. Absorbance was read at 540 nm. * quickly performing rinsing process was to prevent desorption of protein-bound SRB ** completely removed residual wash solution by sharply flicking plates over sink.
The following protocol was used for fixing cells: • a. 50 uL of 50% TCA (4° C.) was gently layered on the top of growth medium in each well to make a final TCA concentration of 10%. • b. Cultures were incubated at 4° C. for 1 hour. • c. Cultures were washed 5 times with tap water to remove TCA, growth medium, low-molecular-weight metabolites, and serum protein. • d. […]

For another assay, the system named is HCI-13 tumors. The assay is described as follows: Phospho-proteomics (protein array) of HCI-13 PDX. Type of assay: in vivo, mice. On the procedure:
Whole tissue lysates were directly prepared from the tissue sections using a 1:1 mixture of T-PER (Tissue Protein Extraction Reagent; Pierce, Rockford, Ill.) and 2× Tris-Glycine SDS Sample Buffer (Invitrogen, Carlsbad, Calif.) supplemented with 5% 2-mercaptoethanol. Samples were boiled for 8 minutes and stored at −80° C. until arrayed.
Samples and standard curves for internal quality assurance were printed onto nitrocellulose-coated slides (Grace Bio-labs, Bend, Oreg.) using an Aushon 2470 arrayer (Aushon BioSystems, Billerica, Mass.). Selected arrays were used to estimate the amount of protein in each sample using a Sypro Ruby Protein Blot Stain (Molecular Probes, Eugene, Oreg.) protocol following manufacturer's instructions (Pin et al. (2014) Curr Protoc Protein Sci 75, Unit 27 27). Remaining arrays were tested with a single primary antibody using an automated system (Dako Cytomation, Carpinteria, Calif.) as previously described (Baldelli et al. (2015) Oncotarget 6, 32368-32379). Arrays were first incubated with Reblot Antibody stripping solution (Chemicon, Temecula, Calif.), followed by two washes in PBS, and I-block solution (Tropix, Bedford, Mass.) for 4 hours. Arrays were probed with a total of 174 antibodies targeting a wide range of protein kinases and their activation via phosphorylation. Antibodies specificity was tested using standard immunoblotting on a panel of cell lysates. […]
The commercially available Signal Amplification System (CSA; Dako Cytomation) and a streptavidin-conjugated IRDye 680 secondary antibody (LI-COR Biosciences, Lincoln, Nebra.) were used as signal detection methods. Images were acquired on the laser-based PowerScanner (TECAN, Monnedorf, Switzerland), and data were analyzed using the MicroVigene software Version 5.1 (Vigene Tech, Carlisle, Mass.) as previously described (Baldelli et al. (2015) Oncotarget 6, 32368-32379). […]

Regarding `C[C@](O)(COc1ccc(C#N)cc1)C(=O)Nc1ccc(C#N)c(C(F)(F)F)c1` [Formula IX, (S)—N-(4-Cyano-3-(trifluoromethyl)phenyl)-3-(4-cyanophenoxy)-2-hydroxy-2-methylpropanamide], the HCC-38 cell growth result in assay [1] is recorded as “inhibited”. Moreover, in the assay on HCI-13 tumors, the “expression of proliferation marker Ki67” value is reported as “inhibited the expression”; the “phosphorylation of oncogenic proteins (pERK, PKC z, RSK3, Ezrin, BCL2, ELF4G, ER)” value is given as “inhibited the phosphorylation”; the “phosphorylation of tumor suppressor proteins (p53, p27, ACC, AR)” value is listed as “increased the phosphorylation”.
